Legend:
Assay in all cases: cell-free kinase assay
Type in all cases: biochemical
p70S6K = target: T1, p70S6K (Homo sapiens, UniProt P23443); conditions: single inhibitor concentration
T1 construct: purchased Carna Biosciences
Description: (§1) We investigated the potency and selectivity of BI 10N against 56 kinases using a cell-free assay (Table 8A).
(§2) The selectivity of this inhibitor was investigated by testing the potency of the inhibitor at two concentrations with 53 kinases by Carna Biosciences (MA) (Table 2).

LYNb = target: T2, LYNb (Homo sapiens, UniProt P07948); conditions: ATP concentration at approximately the Km for ATP
T2 construct: purchased Carna Biosciences
Description: as §1, §2

CHK1 = target: T3, CHK1 (Homo sapiens, UniProt O14757); conditions: single inhibitor concentration
T3 construct: purchased Carna Biosciences
Description: as §1, §2

BLK = target: T4, BLK (Homo sapiens, UniProt P51451); conditions: ATP concentration at approximately the Km for ATP
T4 construct: purchased Carna Biosciences
Description: as §1, §2

ZAP70 = target: T5, ZAP70 (Homo sapiens, UniProt P43403); conditions: ATP concentration at approximately the Km for ATP
T5 construct: purchased Carna Biosciences
Description: as §1, §2

CaMK4 = target: T6, CaMK4 (Homo sapiens, UniProt Q16566); conditions: single inhibitor concentration
T6 construct: purchased Carna Biosciences
Description: as §1, §2

FGR = target: T7, FGR (Homo sapiens, UniProt P09769); conditions: ATP concentration at approximately the Km for ATP
T7 construct: purchased Carna Biosciences
Description: as §1, §2

TSSK1 = target: T8, TSSK1 (Homo sapiens, UniProt Q9BXA7)
T8 construct: purchased Carna Biosciences
Description: as §1, §2

JAK3 = target: T9, JAK3 (Homo sapiens, UniProt P52333); conditions: single inhibitor concentration
T9 construct: purchased Carna Biosciences
Description: as §1, §2

PDK1 = target: T10, PDK1 (Homo sapiens, UniProt O15530); conditions: single inhibitor concentration
T10 construct: purchased Carna Biosciences
Description: as §1, §2

TRKB = target: T11, TRKB (Homo sapiens, UniProt Q16620)
T11 construct: purchased Carna Biosciences
Description: as §1, §2

ROCK1 = target: T12, ROCK1 (Homo sapiens, UniProt Q13464); conditions: single inhibitor concentration
T12 construct: purchased Carna Biosciences
Description: as §1, §2

AurA = target: T13, AurA (Homo sapiens, UniProt O14965); conditions: single inhibitor concentration
T13 construct: purchased Carna Biosciences
Description: as §1, §2

IRAK4 = target: T14, IRAK4 (Homo sapiens, UniProt Q9NWZ3)
T14 construct: purchased Carna Biosciences
Description: as §1, §2

PKACα = target: T15, PKACα (Homo sapiens, UniProt P17612); conditions: single inhibitor concentration
T15 construct: purchased Carna Biosciences
Description: as §1, §2

MST1 = target: T16, MST1 (Homo sapiens, UniProt Q13043)
T16 construct: purchased Carna Biosciences
T16 sequence (Q13043 1-487): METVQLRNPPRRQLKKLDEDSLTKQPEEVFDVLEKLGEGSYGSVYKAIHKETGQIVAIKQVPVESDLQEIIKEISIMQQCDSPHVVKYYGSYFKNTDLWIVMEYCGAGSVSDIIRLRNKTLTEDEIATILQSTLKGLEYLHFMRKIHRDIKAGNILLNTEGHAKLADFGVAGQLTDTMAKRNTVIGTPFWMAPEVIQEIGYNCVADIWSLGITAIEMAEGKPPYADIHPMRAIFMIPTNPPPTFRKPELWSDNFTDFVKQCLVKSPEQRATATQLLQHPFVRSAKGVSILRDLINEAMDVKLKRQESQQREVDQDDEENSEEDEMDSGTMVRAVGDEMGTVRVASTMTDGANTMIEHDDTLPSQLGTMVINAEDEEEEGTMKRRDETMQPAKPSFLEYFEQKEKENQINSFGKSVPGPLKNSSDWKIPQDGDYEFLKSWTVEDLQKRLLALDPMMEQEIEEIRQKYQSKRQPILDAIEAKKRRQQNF
Description: as §1, §2

PKD2 = target: T17, PKD2 (Homo sapiens, UniProt Q9BZL6); conditions: single inhibitor concentration
T17 construct: purchased Carna Biosciences
Description: as §1, §2

SGK = target: T18, SGK (Homo sapiens, UniProt O00141); conditions: single inhibitor concentration
T18 construct: purchased Carna Biosciences
Description: as §1, §2

DAPK1 = target: T19, DAPK1 (Homo sapiens, UniProt P53355); conditions: single inhibitor concentration
T19 construct: purchased Carna Biosciences
Description: as §1, §2

PIM1 = target: T20, PIM1 (Homo sapiens, UniProt P11309); conditions: single inhibitor concentration
T20 construct: purchased Carna Biosciences
Description: as §1, §2

ITK = target: T21, ITK (Homo sapiens, UniProt Q08881)
T21 construct: purchased Carna Biosciences
T21 sequence (Q08881 1-620): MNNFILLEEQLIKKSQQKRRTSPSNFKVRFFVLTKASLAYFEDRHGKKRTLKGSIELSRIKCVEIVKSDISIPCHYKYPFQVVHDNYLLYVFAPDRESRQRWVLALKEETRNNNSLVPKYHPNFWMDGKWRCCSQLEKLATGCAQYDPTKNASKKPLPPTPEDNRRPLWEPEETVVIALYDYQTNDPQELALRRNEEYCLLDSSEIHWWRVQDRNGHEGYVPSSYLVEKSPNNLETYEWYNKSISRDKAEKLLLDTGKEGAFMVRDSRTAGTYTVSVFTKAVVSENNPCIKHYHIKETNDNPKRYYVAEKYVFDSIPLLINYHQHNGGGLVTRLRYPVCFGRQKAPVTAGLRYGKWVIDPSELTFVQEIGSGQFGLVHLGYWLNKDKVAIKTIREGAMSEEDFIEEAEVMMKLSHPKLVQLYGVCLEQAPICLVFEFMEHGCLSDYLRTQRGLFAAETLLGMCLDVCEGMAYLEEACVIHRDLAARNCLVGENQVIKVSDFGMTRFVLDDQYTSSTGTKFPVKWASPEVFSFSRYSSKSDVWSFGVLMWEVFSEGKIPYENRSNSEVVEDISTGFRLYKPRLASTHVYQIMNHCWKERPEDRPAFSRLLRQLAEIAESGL
Description: as §1, §2

EPHB4 = target: T22, EPHB4 (Homo sapiens, UniProt P54760); conditions: single inhibitor concentration
T22 construct: purchased Carna Biosciences
Description: as §1, §2

EPHA2 = target: T23, EPHA2 (Homo sapiens, UniProt P29317); conditions: single inhibitor concentration
T23 construct: purchased Carna Biosciences
Description: as §1, §2

p38α = target: T24, p38α (Homo sapiens, UniProt Q16539); conditions: single inhibitor concentration
T24 construct: purchased Carna Biosciences
Description: as §1, §2

AMPKα1/β1/γ1 = target: T25, AMPKα1/β1/γ1 (Homo sapiens, UniProt Q13131); conditions: single inhibitor concentration
T25 construct: purchased Carna Biosciences
Description: as §1, §2

TIE2 = target: T26, TIE2 (Homo sapiens, UniProt Q02763); conditions: single inhibitor concentration
T26 construct: purchased Carna Biosciences
Description: as §1, §2

T8 sequence (Q9BXA7 whole entry): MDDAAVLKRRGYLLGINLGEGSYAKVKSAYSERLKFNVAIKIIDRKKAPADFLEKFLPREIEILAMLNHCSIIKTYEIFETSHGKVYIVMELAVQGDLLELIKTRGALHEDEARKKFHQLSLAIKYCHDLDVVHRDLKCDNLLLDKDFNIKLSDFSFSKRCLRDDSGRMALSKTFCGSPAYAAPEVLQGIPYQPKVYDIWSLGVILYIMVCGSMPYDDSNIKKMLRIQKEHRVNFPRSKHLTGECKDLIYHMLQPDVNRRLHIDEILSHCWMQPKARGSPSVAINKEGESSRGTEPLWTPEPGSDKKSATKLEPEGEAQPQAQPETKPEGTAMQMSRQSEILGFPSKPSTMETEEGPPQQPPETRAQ
T14 sequence (Q9NWZ3 whole entry): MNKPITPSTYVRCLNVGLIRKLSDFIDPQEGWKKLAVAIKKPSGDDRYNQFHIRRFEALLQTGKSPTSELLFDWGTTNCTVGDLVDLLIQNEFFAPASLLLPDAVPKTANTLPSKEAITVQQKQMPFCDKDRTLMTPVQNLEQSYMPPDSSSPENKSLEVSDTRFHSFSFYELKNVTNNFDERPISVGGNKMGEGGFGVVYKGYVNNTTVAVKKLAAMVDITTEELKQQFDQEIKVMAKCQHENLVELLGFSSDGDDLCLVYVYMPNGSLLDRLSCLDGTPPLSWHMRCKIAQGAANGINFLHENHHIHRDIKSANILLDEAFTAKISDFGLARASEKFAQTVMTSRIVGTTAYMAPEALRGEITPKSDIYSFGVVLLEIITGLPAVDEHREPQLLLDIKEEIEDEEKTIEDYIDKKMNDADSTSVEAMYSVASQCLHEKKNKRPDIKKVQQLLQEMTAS
T11 sequence (Q16620 32-822): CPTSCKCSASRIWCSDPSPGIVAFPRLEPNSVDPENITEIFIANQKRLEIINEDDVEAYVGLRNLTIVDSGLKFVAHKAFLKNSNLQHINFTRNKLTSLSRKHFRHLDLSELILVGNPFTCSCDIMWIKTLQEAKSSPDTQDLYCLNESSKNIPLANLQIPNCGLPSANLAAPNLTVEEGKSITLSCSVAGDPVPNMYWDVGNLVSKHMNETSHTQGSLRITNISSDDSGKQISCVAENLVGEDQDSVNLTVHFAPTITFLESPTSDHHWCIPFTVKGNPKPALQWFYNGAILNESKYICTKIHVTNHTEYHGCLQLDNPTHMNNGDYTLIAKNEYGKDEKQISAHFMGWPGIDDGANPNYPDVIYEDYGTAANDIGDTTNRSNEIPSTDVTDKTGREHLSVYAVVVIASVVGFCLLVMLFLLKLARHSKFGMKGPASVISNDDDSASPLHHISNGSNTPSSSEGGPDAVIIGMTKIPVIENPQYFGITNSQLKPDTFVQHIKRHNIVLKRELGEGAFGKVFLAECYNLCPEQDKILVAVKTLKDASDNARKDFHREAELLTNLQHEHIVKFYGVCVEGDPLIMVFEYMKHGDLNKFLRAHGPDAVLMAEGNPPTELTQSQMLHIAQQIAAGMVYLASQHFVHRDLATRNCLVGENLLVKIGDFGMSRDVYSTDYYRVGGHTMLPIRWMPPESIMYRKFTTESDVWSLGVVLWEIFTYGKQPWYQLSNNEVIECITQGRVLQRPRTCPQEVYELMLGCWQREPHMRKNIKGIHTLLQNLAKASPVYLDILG
T24 sequence (Q16539 whole entry): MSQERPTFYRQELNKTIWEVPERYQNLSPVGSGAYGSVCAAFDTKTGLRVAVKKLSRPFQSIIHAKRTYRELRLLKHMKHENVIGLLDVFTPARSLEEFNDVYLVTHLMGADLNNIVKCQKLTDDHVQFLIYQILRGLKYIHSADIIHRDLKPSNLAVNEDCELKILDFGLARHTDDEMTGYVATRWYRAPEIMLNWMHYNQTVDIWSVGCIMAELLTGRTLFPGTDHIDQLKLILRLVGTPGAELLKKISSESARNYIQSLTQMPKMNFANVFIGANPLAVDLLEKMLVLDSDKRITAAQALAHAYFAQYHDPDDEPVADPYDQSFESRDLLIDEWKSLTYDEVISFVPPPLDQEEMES
T5 sequence (P43403 whole entry): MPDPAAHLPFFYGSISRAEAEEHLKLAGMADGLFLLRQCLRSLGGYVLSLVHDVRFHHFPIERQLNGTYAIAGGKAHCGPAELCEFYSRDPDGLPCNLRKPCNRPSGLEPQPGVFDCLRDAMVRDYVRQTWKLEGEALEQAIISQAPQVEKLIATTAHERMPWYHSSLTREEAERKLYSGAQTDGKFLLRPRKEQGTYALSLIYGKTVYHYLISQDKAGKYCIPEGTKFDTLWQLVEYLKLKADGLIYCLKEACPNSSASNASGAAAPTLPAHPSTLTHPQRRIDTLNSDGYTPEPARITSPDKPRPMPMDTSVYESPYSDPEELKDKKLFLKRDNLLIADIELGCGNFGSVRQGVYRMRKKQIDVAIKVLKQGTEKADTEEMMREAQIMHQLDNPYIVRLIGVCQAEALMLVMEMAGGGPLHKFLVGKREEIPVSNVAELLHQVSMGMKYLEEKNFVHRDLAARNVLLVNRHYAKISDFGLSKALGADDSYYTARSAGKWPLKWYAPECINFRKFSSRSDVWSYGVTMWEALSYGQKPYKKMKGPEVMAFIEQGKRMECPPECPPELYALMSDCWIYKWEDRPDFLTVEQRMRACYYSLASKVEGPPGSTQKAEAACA
T23 sequence (P29317 24-976): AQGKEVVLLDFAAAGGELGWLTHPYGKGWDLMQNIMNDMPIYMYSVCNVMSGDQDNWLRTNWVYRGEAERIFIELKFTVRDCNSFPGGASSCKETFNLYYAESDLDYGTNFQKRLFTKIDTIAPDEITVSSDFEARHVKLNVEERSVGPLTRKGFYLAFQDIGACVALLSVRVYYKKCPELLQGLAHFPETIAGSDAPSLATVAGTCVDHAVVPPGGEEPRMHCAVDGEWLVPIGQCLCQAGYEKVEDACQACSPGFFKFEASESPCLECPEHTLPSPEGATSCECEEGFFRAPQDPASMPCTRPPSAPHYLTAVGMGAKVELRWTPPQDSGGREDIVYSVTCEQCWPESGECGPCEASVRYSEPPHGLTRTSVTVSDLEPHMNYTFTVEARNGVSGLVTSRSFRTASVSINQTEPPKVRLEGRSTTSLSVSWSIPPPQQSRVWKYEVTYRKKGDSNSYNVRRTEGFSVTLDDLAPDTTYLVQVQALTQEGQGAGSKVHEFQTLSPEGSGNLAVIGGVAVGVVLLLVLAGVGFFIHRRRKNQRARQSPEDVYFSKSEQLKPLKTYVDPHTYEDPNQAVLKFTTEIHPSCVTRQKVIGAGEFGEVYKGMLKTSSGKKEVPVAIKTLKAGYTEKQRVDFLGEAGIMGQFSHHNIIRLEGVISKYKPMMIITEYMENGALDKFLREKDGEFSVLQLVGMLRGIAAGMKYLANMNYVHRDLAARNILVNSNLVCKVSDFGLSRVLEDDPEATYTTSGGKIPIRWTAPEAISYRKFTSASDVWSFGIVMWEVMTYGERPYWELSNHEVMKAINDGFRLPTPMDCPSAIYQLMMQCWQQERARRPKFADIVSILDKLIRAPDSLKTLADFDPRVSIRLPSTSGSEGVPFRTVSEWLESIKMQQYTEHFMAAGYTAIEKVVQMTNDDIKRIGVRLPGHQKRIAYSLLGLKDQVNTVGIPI
T22 sequence (P54760 16-987): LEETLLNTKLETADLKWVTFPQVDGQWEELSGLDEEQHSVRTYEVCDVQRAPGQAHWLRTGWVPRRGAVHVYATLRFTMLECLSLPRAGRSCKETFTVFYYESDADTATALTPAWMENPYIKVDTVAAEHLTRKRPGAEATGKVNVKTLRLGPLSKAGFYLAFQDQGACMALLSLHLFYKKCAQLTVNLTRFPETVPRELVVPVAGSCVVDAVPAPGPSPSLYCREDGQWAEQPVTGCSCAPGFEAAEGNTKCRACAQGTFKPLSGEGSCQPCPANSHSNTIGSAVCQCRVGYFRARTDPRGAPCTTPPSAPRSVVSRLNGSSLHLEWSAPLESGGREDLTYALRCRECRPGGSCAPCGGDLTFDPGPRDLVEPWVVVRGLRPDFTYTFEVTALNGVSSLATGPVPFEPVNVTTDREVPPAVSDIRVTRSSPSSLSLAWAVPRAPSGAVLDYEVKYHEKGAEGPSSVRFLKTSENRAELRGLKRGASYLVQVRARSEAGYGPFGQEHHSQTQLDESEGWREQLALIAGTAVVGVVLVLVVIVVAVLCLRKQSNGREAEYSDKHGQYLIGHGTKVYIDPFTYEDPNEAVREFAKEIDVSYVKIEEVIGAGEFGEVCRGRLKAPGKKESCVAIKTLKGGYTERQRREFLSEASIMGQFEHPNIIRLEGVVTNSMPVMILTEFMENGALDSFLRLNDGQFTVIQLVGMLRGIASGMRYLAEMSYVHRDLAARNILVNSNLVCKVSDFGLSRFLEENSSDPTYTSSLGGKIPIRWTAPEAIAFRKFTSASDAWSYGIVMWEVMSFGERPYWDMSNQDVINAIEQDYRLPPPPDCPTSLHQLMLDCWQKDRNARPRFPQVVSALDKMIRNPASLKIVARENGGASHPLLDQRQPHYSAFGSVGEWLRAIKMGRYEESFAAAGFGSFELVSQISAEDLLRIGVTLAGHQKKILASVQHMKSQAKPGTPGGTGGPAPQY
T1 sequence (P23443 whole entry): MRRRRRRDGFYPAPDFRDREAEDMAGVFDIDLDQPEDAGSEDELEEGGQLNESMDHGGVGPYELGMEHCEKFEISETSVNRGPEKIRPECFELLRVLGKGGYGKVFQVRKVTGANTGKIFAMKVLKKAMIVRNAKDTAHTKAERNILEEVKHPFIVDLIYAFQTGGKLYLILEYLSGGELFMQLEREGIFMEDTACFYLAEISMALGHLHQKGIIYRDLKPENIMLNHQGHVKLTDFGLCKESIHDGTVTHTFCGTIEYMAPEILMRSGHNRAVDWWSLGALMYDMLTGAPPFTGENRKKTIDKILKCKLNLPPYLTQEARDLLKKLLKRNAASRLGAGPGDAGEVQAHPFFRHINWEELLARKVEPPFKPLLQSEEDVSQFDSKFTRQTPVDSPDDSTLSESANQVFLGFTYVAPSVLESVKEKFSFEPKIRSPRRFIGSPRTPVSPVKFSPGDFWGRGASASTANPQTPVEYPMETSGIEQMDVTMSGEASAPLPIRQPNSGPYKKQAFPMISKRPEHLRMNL

inhibition at 0.2 µM (p70S6K): 7.6%
IC50 (LYNb): 43 nM
inhibition at 0.2 µM (CHK1): 60.3%
IC50 (BLK): 52.2 nM
IC50 (ZAP70): 7090 nM
inhibition at 0.2 µM (CaMK4): -4.3%
IC50 (FGR): 2.89 nM
IC50 (TSSK1; Table 2, by Carna Biosciences): 28.6 nM
inhibition at 0.2 µM (TSSK1; single inhibitor concentration): 88.9%
inhibition at 0.2 µM (JAK3): 75%
inhibition at 0.2 µM (PDK1): 1.5%
IC50 (TRKB): 1.28 nM
selectivity for ITK over TRKB (TRKB): about 10 fold
inhibition at 0.2 µM (ROCK1): 33%
inhibition at 0.2 µM (AurA): 15.9%
IC50 (IRAK4; Table 2, by Carna Biosciences): 3.14 nM
inhibition at 0.2 µM (IRAK4; single inhibitor concentration): 105%
inhibition at 0.2 µM (PKACα): 2.5%
IC50 (MST1; Table 2, by Carna Biosciences): 26 nM
inhibition at 0.2 µM (MST1; single inhibitor concentration): 91.7%
inhibition at 0.2 µM (PKD2): 7%
inhibition at 0.2 µM (SGK): 1.4%
inhibition at 0.2 µM (DAPK1): 5.5%
inhibition at 0.2 µM (PIM1): 10.4%
mode of inhibition (ITK; ITK): time-dependent inhibitor
IC50 (ITK; ITK, 1 mM ATP, Km ATP 6.1 μM): 1.43 nM
IC50 (ITK; ITK, ATP at approximately the Km for ATP, more potent than can be measured): < 0.5 nM
IC50 (ITK; ITK, Table 2, by Carna Biosciences): 0.486 nM
Km (ITK; ITK, calculated from IC50 at 1 mM ATP, read-out: Calculated Apparent Km for BI 10N Binding): 0.00865 nM
inhibition at 0.2 µM (ITK; ITK, single inhibitor concentration): 107%
Ki (ITK; tight binding studies, read-out: K (affinity for ITK)): 0.0086 nM
inhibition at 0.2 µM (EPHB4): 52.1%
inhibition at 0.2 µM (EPHA2): 7.8%
inhibition at 0.2 µM (p38α): -4.1%
inhibition at 0.2 µM (AMPKα1/β1/γ1): 15.3%
inhibition at 0.2 µM (TIE2): 8.2%
SMILES: CC(C)C(C)CNCc1ccc2c(c1)[nH]/c(=N\C(=O)c1ccc(C3=CN=NC3)s1)n2CC(C)(C)O (stereo not drawn) [BI 10N]

From patent US9649313B2, “Use of ITK inhibitors for the treatment of cancer” (The University of North Carolina at Chapel Hill, priority 2012, dated 2017)
